Results: PubChem BioAssay AID1417 (Emory University Molecular Libraries Screening Center, 2008)

What follows are molecules tested against Induced myeloid leukemia cell differentiation protein Mcl-1 (Homo sapiens) (UniProt Q07820) (assay: Mcl-1 Noxa peptide disruption concentration-response – biochemical, TR-FRET, dose response (AID 1417)). Details: Mcl-1/Noxa peptide interaction, cell-free TR-FRET (terbium/rhodamine), 2 h; measured here: absolute IC50.
Sequence of Induced myeloid leukemia cell differentiation protein Mcl-1 (Homo sapiens) (Q07820 whole entry, looked up): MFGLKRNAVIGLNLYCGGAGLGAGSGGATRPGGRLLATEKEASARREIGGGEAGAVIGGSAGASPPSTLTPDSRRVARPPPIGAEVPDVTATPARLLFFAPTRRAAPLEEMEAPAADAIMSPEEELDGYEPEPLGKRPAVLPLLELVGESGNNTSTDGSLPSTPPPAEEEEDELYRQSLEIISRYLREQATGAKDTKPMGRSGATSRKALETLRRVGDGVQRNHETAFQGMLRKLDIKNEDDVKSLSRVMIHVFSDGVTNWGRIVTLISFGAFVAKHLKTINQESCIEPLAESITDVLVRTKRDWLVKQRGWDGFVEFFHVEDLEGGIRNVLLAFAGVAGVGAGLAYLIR

Row | Structure (SMILES) | IC50
1 | CN(CCC#N)C(=O)COC(=O)c1c2c(nc3ccccc13)/C(=C/c1ccco1)CC2 | 1.63 µM
2 | CC1=NNC(=O)C1CC(=O)N/N=C(\C)c1ccco1 (stereo unspecified) | > 54 µM
3 | N=C1/C(=C\c2ccc(-c3ccc(C(=O)O)cc3)o2)C(=O)N=C2SC=C(c3ccccc3)N12 | < 0.4 µM
4 | Cc1ccc2nc(N3C(=O)C(O)=C(C(=O)c4cc5ccccc5o4)C3c3cccs3)sc2c1 (stereo unspecified) | 1.22 µM
5 | O=C(Nc1ccc2c(c1)nc1n2CCN(C2CCCCC2)C1)c1ccco1 | 9.74 µM
6 | COc1ccc(N2Cc3cccc(C(=O)O)c3C2=O)cc1 | 4.79 µM
7 | Nc1c(C(=O)NCC2CCCO2)sc2nc3c(c(-c4ccco4)c12)CC/C3=C\c1ccco1 (stereo unspecified) | 0.8 µM
8 | N=c1c(C(=O)NCc2ccc3c(c2)OCO3)cc2c(=O)n3ccccc3nc2n1Cc1cccnc1 | 3.26 µM
9 | O=[N+]([O-])c1ccc(O)c(/C=N/Nc2ccc(Cl)nn2)c1 | 16.7 µM
10 | Nc1c(C(=O)NCCN2CCOCC2)c2nc3ccccc3nc2n1Cc1ccco1 | > 54 µM
11 | C=CCn1c(C)cc(C(=O)Cn2ncc(Cl)c(Cl)c2=O)c1C | 3.07 µM
12 | COc1ccccc1NC(=O)C(=O)N/N=C/c1ccc([N+](=O)[O-])s1 | 6.17 µM
13 | Cc1c(O)cc2c(c1O)C(=O)CC(c1ccc(O)cc1)O2 (stereo unspecified) | 2.84 µM
14 | COc1ccc(O)c(N)c1 | < 0.4 µM
15 | Oc1c(/C=N/c2ccccn2)sc2ccccc12 | < 0.4 µM
16 | O=C(COC(=O)c1cc(-c2ccco2)nc2ccccc12)NCc1ccc2c(c1)OCO2 | 29.4 µM
17 | O=C1OC(c2cccs2)=N/C1=C/c1ccc(-c2cccc(C(=O)O)c2)o1 | > 54 µM
18 | O=C(O)CCCN1C(=O)/C(=C/c2cn(-c3ccccc3)nc2-c2cccs2)SC1=S | 1.54 µM
19 | Cc1cc(C)c(S(=O)(=O)NCc2cn3c(C)csc3n2)cc1C | > 54 µM
20 | O=C(/C=C/c1ccc(O)c(O)c1)O[C@H](Cc1ccc(O)c(O)c1)C(=O)O | < 0.4 µM
21 | CC1(C)CC(=O)C(C=Nc2cccc(/N=C/C3=C(O)CC(C)(C)CC3=O)n2)=C(O)C1 | > 54 µM
22 | COc1ccc(N2CCC(CNC(=O)Nc3ccccc3)C2)cc1 (stereo unspecified) | < 0.4 µM
23 | CCOC(=O)C1=C(O)/C(=C/c2cc(OC)c(O)c(OC)c2)SC1=Nc1ccc(OC)cc1 | > 54 µM
24 | N=C1S/C(=C\c2ccco2)C(=O)N1c1ccc2c(c1)OCO2 | 8.85 µM
25 | Cc1ccc(NC(=O)CN2C(=O)S/C(=C\c3cccn3-c3cccc(C(=O)O)c3)C2=O)c(C)c1 | 13.1 µM
26 | COc1cc(C(Nc2ccccn2)c2ccc3ccc(C)nc3c2O)cc(OC)c1O (stereo unspecified) | < 0.4 µM

Row | Structure (SMILES) | IC50
27 | C/C(=N\Nc1cccc(C(=O)O)c1)c1ccc2c(c1)Nc1ccccc1S2 | < 0.4 µM
28 | O=C(NCCO)c1ccc2nc(-c3ccco3)c(-c3ccco3)nc2c1 | 0.527 µM
29 | N[C@@H](Cc1cc(I)c(Oc2ccc(O)c(I)c2)c(I)c1)C(=O)O | < 0.4 µM
30 | Cc1cccc(C(=O)NC(=S)NNC(=O)c2ccc(Cl)cc2)c1 | > 54 µM
31 | O=C(O)c1ccc(Nc2nc(-c3cc4ccccc4oc3=O)cs2)cc1O | 5.36 µM
32 | CCOC(=O)NNc1ccc2nonc2c1[N+](=O)[O-] | < 0.4 µM
33 | CN(C)c1ccc(NC(=O)Cn2ncn3c(cc4ccccc43)c2=O)cc1 | 3.42 µM
34 | CC(C)OC(=O)Cn1cnc2ccc(Br)cc2c1=O | > 54 µM
35 | O=[N+]([O-])c1ccc(-c2cc(-c3ccc(Cl)cc3)n[nH]2)cc1 | 5.61 µM
36 | S=C(NNc1ccnc2cc(Cl)ccc12)Nc1ccc(Cl)cc1Cl | 6.37 µM
37 | Nc1ccc(N2CCCCC2)cc1N1CCCCC1 | > 54 µM
38 | O=c1/c(=C/c2ccc(O)c([N+](=O)[O-])c2)sc2nc3ccccc3n12 | 4.26 µM
39 | Nc1c(O)ccc2c1C(=O)c1ccccc1C2=O | 43.4 µM
40 | COc1ccc(CC(=O)n2[nH]c(=O)ccc2=O)cc1OC | < 0.4 µM
41 | CCOC(=O)C1CCCN(c2ccc(NC(=O)c3snc4c(=O)[nH]c(C)nc34)cc2)C1 (stereo unspecified) | 6.54 µM
42 | C/C=C\C=C/C(=O)Nc1cccc(C2=NOC3(C2)C[C@@H](C(N)=O)N(C(=O)c2ccccc2)C3)c1 (stereo partly specified) | 50.9 µM
43 | O=C1/C(=C/c2ccccn2)SC(=S)N1c1ccc(O)cc1 | 8.38 µM
44 | COc1ccc(C(=O)c2sc3nc(-c4ccccc4)ccc3c2N)cc1OC | > 54 µM
45 | CCC(C)N1C(=O)/C(=C/c2ccc3c(c2)CCN3CCCCl)C(=O)NC1=S (stereo unspecified) | 1.92 µM
46 | O=C(Nc1ccc2nc(-c3ccc4nc[nH]c4c3)[nH]c2c1)c1cccs1 | 2.7 µM
47 | CSc1nc(SCCO)c2sc3nc(-c4ccco4)c4c(c3c2n1)CC(C)(C)OC4 | < 0.4 µM
48 | COc1ccc(/C=C2/C(=O)NC(=S)N(C3CC3)C2=O)cc1CN1C(=O)c2ccccc2C1=O | 3.11 µM
49 | CC(=O)c1sc2nc(-c3cccs3)ccc2c1N | > 54 µM
50 | CCOc1cc(/C=N/Nc2nc(-c3cccs3)c(NC(C)=O)s2)ccc1O | < 0.4 µM
51 | CC(C(=O)Nc1cc([N+](=O)[O-])ccc1Cl)N1CCN(c2ccc(O)cc2)CC1 (stereo unspecified) | > 54 µM
52 | Cc1ccc(NC(=O)CN2C(=O)S/C(=C/c3ccc(-c4cc(C(=O)O)ccc4C)o3)C2=O)cc1C | 2.85 µM

Row | Structure (SMILES) | IC50
53 | CN1CCC(N(C)c2nc(-c3ccc([N+](=O)[O-])cc3)nc3ccccc23)CC1 | < 0.4 µM
54 | N=C1/C(=C/c2ccc(-c3cccc(C(=O)O)c3)o2)C(=O)N=C2SC=C(c3ccccc3)N12 | < 0.4 µM
55 | COc1ccc(N=C2S/C(=C\c3ccc(OC(C)C(=O)O)c(OC)c3)C(=O)N2CCc2c[nH]c3ccccc23)cc1 (stereo unspecified) | 7.31 µM
56 | COc1ccccc1NC(=O)c1cc2cc(Br)ccc2cc1O | 2.11 µM
57 | COc1cc(/C=C2\SC(=O)N(c3ccc(Cl)cc3)C2=O)cc([N+](=O)[O-])c1O | < 0.4 µM
58 | Cc1ccc(Cn2c(=N)c(C(=O)NCc3ccco3)cc3c(=O)n4ccccc4nc32)cc1 | 3.6 µM
59 | O=C(N/N=C/c1ccc(O)cc1O)c1ccc(CN2C(=O)c3cccc4cccc2c34)cc1 | 1.29 µM
60 | O=C(/C=C/c1cccnc1)c1ccc(O)cc1 | > 54 µM
61 | COc1cc(SSc2cc(OC)cc([N+](=O)[O-])c2N)c(N)c([N+](=O)[O-])c1 | < 0.4 µM
62 | COCCN(CCOC)S(=O)(=O)c1ccc(C(=O)Nc2c(C)n(C)n(-c3ccccc3)c2=O)cc1 | > 54 µM
63 | O=C(O)CCn1cc(C=C2C(=O)NC(=S)NC2=O)c(-c2cccc(Br)c2)n1 | 2.18 µM
64 | CC(/C=N/NC(=O)c1cc(-c2ccc3ccccc3c2)n[nH]1)=C\c1ccco1 | 4.91 µM
65 | Cc1cccc(N=C2NC(=O)/C(=C/C=C/c3ccco3)S2)c1C | 4.15 µM
66 | Cc1cc2c(C(C)C)c(O)c(O)c(C=O)c2c(O)c1-c1c(C)cc2c(C(C)C)c(O)c(O)c(C=O)c2c1O | < 0.4 µM
67 | O=[N+]([O-])c1cccc(S(=O)(=O)Nc2nc3ccccc3nc2Nc2cccc(S(=O)(=O)N3CCCCC3)c2)c1 | 3.75 µM
68 | CCOc1ccc(C(=O)Nc2cc(NC(=O)c3ccc(OCC)c(Cl)c3)cc(C(=O)O)c2)cc1Cl | 16.5 µM
69 | O=C(N/N=C/c1ccc(-c2ccccc2C(=O)O)o1)c1cccs1 | 7.88 µM
70 | O=C(O)c1ccc(N/N=C/C2=C(N3CCOCC3)C(=C\c3ccccc3)/CC2)cc1 | 2.02 µM
71 | COc1cc(C(=O)Nc2ccc3c(c2)C(=O)c2ccccc2C3=O)cc(OC)c1OC | 3.97 µM
72 | O=C(CSc1n[nH]c(=O)[nH]c1=O)Nc1ccc2c(c1)C(=O)c1ccccc1C2=O | > 54 µM
73 | O=[N+]([O-])c1cc([N+](=O)[O-])c2cccnc2c1Oc1ccccc1O | 1.27 µM
74 | COc1ccc(Cl)c(N2CCN(CCCNC(=O)Nc3ccc(C)cc3)CC2)c1 | 6.02 µM
75 | O=C(O)c1ccc2nc(-c3ccco3)c(-c3ccco3)nc2c1 | 1.63 µM
76 | Oc1ccc(/C=N/Nc2ccnc3cc(Cl)ccc23)c(O)c1 | < 0.4 µM
